Source: patent US6737383B1, “Herbicidal oxadiazolidines” (priority 1999, dated 2004)

Assays:
bedstraw = assay: Test B pre/postemergence bedstraw; type: in vivo, Galium aparine
How it was run: (§1)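 Herbicidal effect was estimated by eye on a ten-point control scale after plants spent twelve to sixteen days in a greenhouse following soil or foliar treatment. Foliar sprays targeted plants at one to four leaves; all doses were formulated in a non-phytotoxic solvent with surfactant.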

blackgrass = assay: Test B pre/postemergence blackgrass; type: in vivo, Alopecurus myosuroides
How it was run: as §1

surinam grass = assay: Test B pre/postemergence surinam grass; type: in vivo, Brachiaria decumbens
How it was run: as §1

cocklebur = assay: Test B pre/postemergence cocklebur; type: in vivo, Xanthium strumarium
How it was run: as §1

corn = assay: Test B pre/postemergence corn; type: in vivo, Zea mays
How it was run: as §1

crabgrass = assay: Test B pre/postemergence crabgrass; type: in vivo, Digitaria sanguinalis
How it was run: as §1

giant foxtail = assay: Test B pre/postemergence giant foxtail; type: in vivo, Setaria faberii
How it was run: as §1

morningglory = assay: Test B pre/postemergence morningglory; type: in vivo, Ipomoea hederacea
How it was run: as §1

pigweed = assay: Test B pre/postemergence pigweed; type: in vivo, Amaranthus retroflexus
How it was run: as §1

rape = assay: Test B pre/postemergence rape; type: in vivo, Brassica napus
How it was run: as §1

soybean = assay: Test B pre/postemergence soybean; type: in vivo, Glycine max
How it was run: as §1

sugar beet = assay: Test B pre/postemergence sugar beet; type: in vivo, Beta vulgaris
How it was run: as §1

velvetleaf = assay: Test B pre/postemergence velvetleaf; type: in vivo, Abutilon theophrasti
How it was run: as §1

wheat = assay: Test B pre/postemergence wheat; type: in vivo, Triticum aestivum
How it was run: as §1

wild oat = assay: Test B pre/postemergence wild oat; type: in vivo, Avena fatua
How it was run: as §1

purple nutsedge = assay: Test B pre/postemergence purple nutsedge; type: in vivo, Cyperus rotundus
How it was run: as §1

[1] = Postemergence, Rate 125 g/ha, scale 0 to 10, 0 is no effect, 10 is complete control
[2] = Preemergence, Rate 62 g/ha, scale 0 to 10 (0 no effect, 10 complete control)
[3] = Preemergence, Rate 125 g/ha, scale 0 to 10, 0 is no effect, 10 is complete control
[4] = Preemergence, Rate 500 g/ha, scale of 0 to 10 where 0 is no effect and 10 is complete control
[5] = Rate 250 g/ha, Postemergence, scale of 0 to 10 where 0 is no effect and 10 is complete control
[6] = Postemergence, Rate 62 g/ha, scale of 0 to 10, 0 is no effect, 10 is complete control
[7] = Postemergence, Rate 500 g/ha, scale 0 to 10, 0 is no effect, 10 is complete control

CC(=O)OCCCCn1c(=O)on(C(=O)N(c2ccc(Cl)cc2)C(C)C)c1=O [Compound 536]
4: Soybean plant response rating (soybean; [1]) | Plant response rating, Soybean (soybean; [5])
9: Giant foxtail plant response rating (giant foxtail; [3])
5: Crabgrass plant response rating (crabgrass; [1]) | Plant response rating, Crabgrass (crabgrass; [5])
2: Crabgrass plant response rating (crabgrass; [4]) | Morningglory plant response rating (morningglory; [6]) | Morningglory plant response rating (morningglory; [1]) | Plant response rating, Morningglory (morningglory; [7]) | Plant response rating, Morningglory (morningglory; [5]) | Soybean plant response rating (soybean; [6]) | Sugarbeets plant response rating (0 to 10 scale) (sugar beet; Preemergence, Rate 250 g/ha)
10: Giant foxtail plant response rating (0 to 10 scale) (giant foxtail; Preemergence, Rate 250 g/ha) | Giant foxtail plant response rating (giant foxtail; [4])
7: Giant foxtail plant response rating (giant foxtail; [2])
0: Bedstraw plant response rating (bedstraw; [1]) | Bedstraw plant response rating (bedstraw; [2]) | Bedstraw plant response rating (bedstraw; [3]) | Bedstraw plant response rating (0 to 10 scale) (bedstraw; Preemergence, Rate 250 g/ha) | Bedstraw plant response rating (bedstraw; [4]) | Plant response rating, Bedstraw (bedstraw; [5]) | Blackgrass plant response rating (blackgrass; [6]) | Blackgrass plant response rating (blackgrass; [1]) | Plant response rating, Blackgrass (blackgrass; [7]) | Blackgrass plant response rating (blackgrass; [2]) | Blackgrass plant response rating (blackgrass; [3]) | Blackgrass plant response rating (0 to 10 scale) (blackgrass; Preemergence, Rate 250 g/ha) | Blackgrass plant response rating (blackgrass; [4]) | Plant response rating, Blackgrass (blackgrass; [5]) | B. signalgrass plant response rating (surinam grass; [6]) | B. signalgrass plant response rating (surinam grass; [1]) | Plant response rating, B. signalgrass (surinam grass; [7]) | B. signalgrass plant response rating (surinam grass; [2]) | B. signalgrass plant response rating (surinam grass; [3]) | B. signalgrass plant response rating (0 to 10 scale, 0 is no effect, 10 is complete control) (surinam grass; Preemergence, Rate 250 g/ha) | B. signalgrass plant response rating (surinam grass; [4]) | Plant response rating, B. signalgrass (surinam grass; [5]) | Cocklebur plant response rating (cocklebur; [6]) | Cocklebur plant response rating (cocklebur; [1]) | Plant response rating, Cocklebur (cocklebur; [7]) | Cocklebur plant response rating (cocklebur; [2]) | Cocklebur plant response rating (cocklebur; [3]) | Cocklebur plant response rating (0 to 10 scale) (cocklebur; Preemergence, Rate 250 g/ha) | Cocklebur plant response rating (cocklebur; [4]) | Plant response rating, Cocklebur (cocklebur; [5]) | Corn plant response rating (corn; [6]) | Corn plant response rating (corn; [1]) | Plant response rating, Corn (corn; [7]) | Corn plant response rating (corn; [2]) | Corn plant response rating (corn; [3]) | Corn plant response rating (0 to 10 scale) (corn; Preemergence, Rate 250 g/ha) | Corn plant response rating (corn; [4]) | Plant response rating, Corn (corn; [5]) | Crabgrass plant response rating (crabgrass; [6]) | Crabgrass plant response rating (crabgrass; [2]) | Crabgrass plant response rating (crabgrass; [3]) | Crabgrass plant response rating (0 to 10 scale) (crabgrass; Preemergence, Rate 250 g/ha) | Giant foxtail plant response rating (giant foxtail; [6]) | Giant foxtail plant response rating (giant foxtail; [1]) | Plant response rating, Giant foxtail (giant foxtail; [7]) | Plant response rating, Giant foxtail (giant foxtail; [5]) | Morningglory plant response rating (morningglory; [2]) | Morningglory plant response rating (morningglory; [3]) | Redroot pigweed plant response rating (pigweed; [6]) | Redroot pigweed plant response rating (pigweed; [1]) | Redroot pigweed plant response rating (pigweed; [2]) | Redroot pigweed plant response rating (pigweed; [3]) | Redroot pigweed plant response rating (0 to 10 scale) (pigweed; Preemergence, Rate 250 g/ha) | Redroot pigweed plant response rating (pigweed; [4]) | Plant response rating, Redroot pigweed (pigweed; [5]) | Rape plant response rating (rape; [6]) | Rape plant response rating (rape; [1]) | Plant response rating, Rape (rape; [7]) | Rape plant response rating (rape; [2]) | Rape plant response rating (rape; [3]) | Rape plant response rating (0 to 10 scale) (rape; Preemergence, Rate 250 g/ha) | Rape plant response rating (rape; [4]) | Plant response rating, Rape (rape; [5]) | Soybean plant response rating (soybean; [2]) | Soybean plant response rating (soybean; [3]) | Soybean plant response rating (0 to 10 scale) (soybean; Preemergence, Rate 250 g/ha) | Soybean plant response rating (soybean; [4]) | Sugarbeets plant response rating (sugar beet; [6]) | Sugarbeets plant response rating (sugar beet; [1]) | Plant response rating, Sugarbeets (sugar beet; [7]) | Sugarbeets plant response rating (sugar beet; [2]) | Sugarbeets plant response rating (sugar beet; [3]) | Plant response rating, Sugarbeets (sugar beet; [5]) | Velvetleaf plant response rating (velvetleaf; [6]) | Velvetleaf plant response rating (velvetleaf; [1]) | Plant response rating, Velvetleaf (velvetleaf; [7]) | Velvetleaf plant response rating (velvetleaf; [2]) | Velvetleaf plant response rating (velvetleaf; [3]) | Velvetleaf plant response rating (0 to 10 scale) (velvetleaf; Preemergence, Rate 250 g/ha) | Velvetleaf plant response rating (velvetleaf; [4]) | Plant response rating, Velvetleaf (velvetleaf; [5]) | Wheat plant response rating (wheat; [6]) | Wheat plant response rating (wheat; [1]) | Plant response rating, Wheat (wheat; [7]) | Wheat plant response rating (wheat; [2]) | Wheat plant response rating (wheat; [3]) | Wheat plant response rating (0 to 10 scale) (wheat; Preemergence, Rate 250 g/ha) | Wheat plant response rating (wheat; [4]) | Plant response rating, Wheat (wheat; [5]) | Wild oats plant response rating (wild oat; [6]) | Wild oats plant response rating (wild oat; [1]) | Plant response rating, Wild oats (wild oat; [7]) | Wild oats plant response rating (wild oat; [2]) | Wild oats plant response rating (wild oat; [3]) | Wild oats plant response rating (0 to 10 scale) (wild oat; Preemergence, Rate 250 g/ha) | Wild oats plant response rating (wild oat; [4]) | Plant response rating, Wild oats (wild oat; [5]) | Nutsedge plant response rating (purple nutsedge; [6]) | Nutsedge plant response rating (purple nutsedge; [1]) | Plant response rating, Nutsedge (purple nutsedge; [7]) | Nutsedge plant response rating (purple nutsedge; [2]) | Nutsedge plant response rating (purple nutsedge; [3]) | Nutsedge plant response rating (0 to 10 scale) (purple nutsedge; Preemergence, Rate 250 g/ha) | Nutsedge plant response rating (purple nutsedge; [4]) | Plant response rating, Nutsedge (purple nutsedge; [5])
6: Plant response rating, Soybean (soybean; [7])
8: Plant response rating, Redroot pigweed (pigweed; [7])
3: Plant response rating, Crabgrass (crabgrass; [7]) | Sugarbeets plant response rating (sugar beet; [4])
